Assay results: PMC11116414, “Impact of secretin receptor homo-dimerization on natural ligand binding” (Nature Communications, 2024)
No end group written: not given here.

System: cysteine-containing SecR(G264A,I268A) constructs
Test: Cysteine trapping with SecR(G264A,I268A) cysteine constructs, intact COS-1 cells
Type: binding, human
Conditions: for Intraloop labeling / Overall labeling: mean ± S.E.M.
Experimental: In short, 15 µg of each peptide were incubated with 1 mCi of Na^125I for 15 s in borate buffer (pH 9.0) using solid-state N-chlorobenzene sulfonamide (iodination beads), and radioactive peptide products were separated and purified using reversed-phase HPLC, to yield a mono-iodinated peak with a specific radioactivity of 2000 Ci/mmol.
Modified secretin receptor constructs were prepared by mutagenesis of human SecR(G264A,I268A) by introducing cysteine residues to replace each natural residue in the N-terminal stalk region, (extracellular loop 1) ECL1, ECL2, and ECL3 regions of the receptor[21]. Mutagenesis was performed using the QuikChange site-directed mutagenesis kit from Stratagene (La Jolla, CA), with the products verified by direct DNA sequencing.
Cysteine trapping is a technique in which cysteine residues incorporated into distinct positions within a peptide ligand and within its receptor are allowed to form disulfide bonds when two free cysteines are in proximity to each other with necessary distance and geometry. As noted above, this was performed with secretin peptides incorporating cysteines in positions 2, 5, 6 and 7[20],[21], and with a series of SecR mutants incorporating cysteines in all extracellular domains (75 distinct constructs in a TM4 mutant non-dimerizing SecR background). COS-1 cells were grown to approximate 85% confluence in 24-well tissue culture plates, and transfected with cysteine mutant receptor constructs using the PEI method. Assays were started by washing the cells with DMEM containing 5% Fetal Clone II before being incubated with 200 μl radiolabeled cysteine-containing probes (approximately 100,000 cpm per well) for 1.5 h at room temperature. The assays were terminated by washing the cells with ice-cold PBS, pH 7.4, and mixing with 60 µl SDS Laemmli sample buffer not containing dithiothreitol (DTT). Lysates were run on 10% SDS-polyacrylamide gels. Gels were then dried, and bands of interest were visualized by autoradiography, and specific bands were identified, and intensities quantified using ImageJ. Sites having labeling above background were determined using one-way ANOVA with Dunnett’s post-test, with P < 0.001 considered to be significant. The apparent molecular weights of the receptor bands were determined by interpolation with the mobility of the appropriate ProSieve protein markers.

**Q.** How did the Intraloop labeling (A290C, ECL2, n = 3-5) turn out when “Cys^5-[Tyr^10]secretin(1-27) (HSDGCFTSEYSRLREGARLQRLLQGLV; not fully specified; ends and bridges not checked; also: radioiodinated; UniProt P09683 28-54, looked up, variant T5C L10Y) [Cys^5-Sec, cysteine-containing secretin agonist probe, radioiodinated for cysteine trapping]” was run?
**A.** 20.3±19.9 percentage

**Q.** What about the Overall labeling (A290C, ECL2, n = 3-5) of the same substance?
**A.** 15.5±15.2 percentage

**Q.** And the Intraloop labeling (A292C, ECL2, n = 3-5)?
**A.** 93.4±2.8 percentage

**Q.** What about the Overall labeling (A292C, ECL2, n = 3-5, Cys5 significant (P < 0.0001)) of the same substance?
**A.** 88.5±4.0 percentage

**Q.** And the Intraloop labeling (A365C, ECL3, n = 3-5)?
**A.** 90.4±5.8 percentage

**Q.** And the Overall labeling (A365C, ECL3, n = 3-5, Cys5 significant (P < 0.0001))?
**A.** 82.4±7.9 percentage

**Q.** And the Intraloop labeling (D282C, ECL2, n = 3-5)?
**A.** < 1 percentage

**Q.** What about the Overall labeling (D282C, ECL2, n = 3-5) of the same substance?
**A.** < 1 percentage

**Q.** What about the Intraloop labeling (D287C, ECL2, n = 3-5) of the same substance?
**A.** < 1 percentage

**Q.** And the Overall labeling (D287C, ECL2, n = 3-5)?
**A.** < 1 percentage

**Q.** What about the Intraloop labeling (D364C, ECL3, n = 3-5) of the same substance?
**A.** 62.2±12.3 percentage

**Q.** And the Overall labeling (D364C, ECL3, n = 3-5, Cys5 significant (P < 0.0001))?
**A.** 54.2±7.8 percentage

**Q.** And the Intraloop labeling (E281C, ECL2, n = 3-5)?
**A.** < 1 percentage

**Q.** And the Overall labeling (E281C, ECL2, n = 3-5)?
**A.** < 1 percentage

**Q.** What about the Intraloop labeling (E363C, ECL3, n = 3-5) of the same substance?
**A.** < 1 percentage

**Q.** And the Overall labeling (E363C, ECL3, n = 3-5)?
**A.** < 1 percentage

**Q.** And the Intraloop labeling (E367C, ECL3, n = 3-5)?
**A.** < 1 percentage

**Q.** And the Overall labeling (E367C, ECL3, n = 3-5)?
**A.** < 1 percentage

**Q.** What about the Intraloop labeling (E373C, ECL3, n = 3-5) of the same substance?
**A.** < 1 percentage

**Q.** What about the Overall labeling (E373C, ECL3, n = 3-5) of the same substance?
**A.** < 1 percentage

**Q.** What about the Intraloop labeling (F279C, ECL2, % of highest labeling within loop, n = 4 (Cys2), 5 (Cys5, Cys6), 3 (Cys7)) of the same substance?
**A.** < 1 percentage

**Q.** And the Overall labeling (F279C, ECL2, % of highest-labeled residue across all constructs, n = 4 (Cys2), 5 (Cys5, Cys6), 3 (Cys7))?
**A.** < 1 percentage

**Q.** And the Intraloop labeling (F371C, ECL3, n = 3-5)?
**A.** < 1 percentage

**Q.** What about the Overall labeling (F371C, ECL3, n = 3-5) of the same substance?
**A.** < 1 percentage

**Q.** What about the Intraloop labeling (F372C, ECL3, n = 3-5) of the same substance?
**A.** < 1 percentage

**Q.** What about the Overall labeling (F372C, ECL3, n = 3-5) of the same substance?
**A.** < 1 percentage

**Q.** And the Intraloop labeling (G284C, ECL2, n = 3-5)?
**A.** < 1 percentage

**Q.** And the Overall labeling (G284C, ECL2, n = 3-5)?
**A.** < 1 percentage

**Q.** And the Intraloop labeling (I288C, ECL2, n = 3-5)?
**A.** 71.1±10.8 percentage

**Q.** What about the Overall labeling (I288C, ECL2, n = 3-5, Cys5 and Cys7 significant (P < 0.0001)) of the same substance?
**A.** 69.2±12.2 percentage

**Q.** What about the Intraloop labeling (I294C, ECL2, n = 3-5) of the same substance?
**A.** < 1 percentage

**Q.** And the Overall labeling (I294C, ECL2, n = 3-5)?
**A.** < 1 percentage

**Q.** What about the Intraloop labeling (I297C, ECL2, n = 3-5) of the same substance?
**A.** < 1 percentage

**Q.** And the Overall labeling (I297C, ECL2, n = 3-5)?
**A.** < 1 percentage

**Q.** And the Intraloop labeling (I368C, ECL3, n = 3-5)?
**A.** < 1 percentage

**Q.** What about the Overall labeling (I368C, ECL3, n = 3-5) of the same substance?
**A.** < 1 percentage

**Q.** What about the Intraloop labeling (L280C, ECL2, n = 3-5) of the same substance?
**A.** < 1 percentage

**Q.** And the Overall labeling (L280C, ECL2, n = 3-5)?
**A.** < 1 percentage

**Q.** And the Intraloop labeling (L370C, ECL3, n = 3-5)?
**A.** < 1 percentage

**Q.** And the Overall labeling (L370C, ECL3, n = 3-5)?
**A.** < 1 percentage

**Q.** And the Intraloop labeling (L374C, ECL3, n = 3-5)?
**A.** 77.3±7.7 percentage

**Q.** What about the Overall labeling (L374C, ECL3, n = 3-5, Cys5, Cys6, Cys7 significant (P < 0.001)) of the same substance?
**A.** 69.8±7.5 percentage

**Q.** What about the Intraloop labeling (M366C, ECL3, n = 3-5) of the same substance?
**A.** 59.9±11.0 percentage

**Q.** What about the Overall labeling (M366C, ECL3, n = 3-5, Cys5 significant (P < 0.0001)) of the same substance?
**A.** 55.3±12.0 percentage

**Q.** What about the Intraloop labeling (N289C, ECL2, n = 3-5) of the same substance?
**A.** < 1 percentage

**Q.** What about the Overall labeling (N289C, ECL2, n = 3-5) of the same substance?
**A.** < 1 percentage

**Q.** What about the Intraloop labeling (N291C, ECL2, n = 3-5) of the same substance?
**A.** < 1 percentage

**Q.** What about the Overall labeling (N291C, ECL2, n = 3-5) of the same substance?
**A.** < 1 percentage

**Q.** And the Intraloop labeling (P362C, ECL3, n = 3-5)?
**A.** 20.3±19.9 percentage

**Q.** What about the Overall labeling (P362C, ECL3, n = 3-5) of the same substance?
**A.** 19.3±19.0 percentage

**Q.** And the Intraloop labeling (Q369C, ECL3, n = 3-5)?
**A.** 21.6±13.4 percentage

**Q.** What about the Overall labeling (Q369C, ECL3, n = 3-5) of the same substance?
**A.** 21.6±13.5 percentage

**Q.** And the Intraloop labeling (S293C, ECL2, n = 3-5)?
**A.** < 1 percentage

**Q.** And the Overall labeling (S293C, ECL2, n = 3-5)?
**A.** < 1 percentage

**Q.** What about the Intraloop labeling (S361C, ECL3, n = 3-5) of the same substance?
**A.** < 1 percentage

**Q.** And the Overall labeling (S361C, ECL3, n = 3-5)?
**A.** < 1 percentage

**Q.** And the Intraloop labeling (V283C, ECL2, n = 3-5)?
**A.** < 1 percentage

**Q.** What about the Overall labeling (V283C, ECL2, n = 3-5) of the same substance?
**A.** < 1 percentage

**Q.** What about the Intraloop labeling (W286C, ECL2, n = 3-5) of the same substance?
**A.** < 1 percentage

**Q.** And the Overall labeling (W286C, ECL2, n = 3-5)?
**A.** < 1 percentage

**Q.** What about the Intraloop labeling (W295C, ECL2, n = 3-5) of the same substance?
**A.** 79.1±16.7 percentage

**Q.** And the Overall labeling (W295C, ECL2, n = 3-5, Cys2, Cys5, Cys7 significant (P < 0.0001))?
**A.** 78.3±17.3 percentage

**Q.** And the Intraloop labeling (W296C, ECL2, n = 3-5)?
**A.** < 1 percentage

**Q.** And the Overall labeling (W296C, ECL2, n = 3-5, Cys6 significant (P = 0.0003))?
**A.** < 1 percentage

**Q.** What about the “cysteine trapping in ECL3, in words” value (WT (earlier work) and non-dimerizing SecR) of the same substance?
**A.** labeled ECL3 residues
